The source of these data is ChEMBL document CHEMBL1148264, “Evaluation of series of isobenzofuranone dimers as PKCalpha ligands: implication for the distance between the two ligand binding sites” (Bioorg Med Chem Lett, 2004).

SMILES strings stand for the structures.

Assay [1] concerns the target Protein kinase C alpha type (Homo sapiens) (UniProt P17252). Description: Displacement of [3H]PDBu from protein kinase C alpha at 100 uM; Range 80 to 100. Background: Displacement assays read how much labelled ligand stays bound in the presence of the test substance.
Assay [2] shares this target. Description: Displacement of [3H]PDBu from protein kinase C alpha at 100 uM; Range 2 to 40.
The target is the same in assay [3]. Description: Displacement of [3H]PDBu from protein kinase C alpha at 100 uM; Range 0 to 20.
For assay [4] the target is unchanged. The assay can be described thus: Displacement of [3H]PDBu from protein kinase C alpha at 100 uM; Range 40 to 60.
The target is the same in assay [5]. Description: Displacement of [3H]PDBu from protein kinase C alpha at 100 uM; Range 60 to 80.
For assay [6] the target is unchanged. The assay can be described thus: Displacement of [3H]PDBu from protein kinase C alpha at 100 uM; Range 20 to 40.
For assay [7] the target is unchanged. Description: Displacement of [3H]PDBu from protein kinase C alpha at 100 uM; Range 20 to 30.

With `CC(=O)OC[C@@]1(CO)OC(=O)c2c(OCCCCCCCCCCCCCOc3cccc4c3C(=O)O[C@]4(CO)COC(C)=O)cccc21`, in assay [1], the inhibition (commonly the percentage by which the read-out fell short of the control) is 85%.

Regarding `CC(=O)OC[C@@]1(CO)OC(=O)c2c(OCCCCCCCCCCCCCCCCOc3cccc4c3C(=O)O[C@]4(CO)COC(C)=O)cccc21`, in assay [1], the inhibition is 91%.

In the case of `CC(=O)OC[C@@]1(CO)OC(=O)c2c(OCc3ccccc3)cccc21`, the inhibition in assay [2] worked out at 30%.

As for `CC(=O)OC[C@@]1(CO)OC(=O)c2c(OCCCCCCCCCCCCCCOc3cccc4c3C(=O)O[C@]4(CO)COC(C)=O)cccc21`, the inhibition in assay [1] came to 90%.

Regarding `CC(=O)OC[C@@]1(CO)OC(=O)c2c(OCCCCCCCCCCCCCCCOc3cccc4c3C(=O)O[C@]4(CO)COC(C)=O)cccc21`, in assay [1], the inhibition came out at 92%.

`CC(=O)OC[C@@]1(CO)OC(=O)c2c(OCCCCCCCCCCCCCCCCCCCCCCCCOc3cccc4c3C(=O)O[C@]4(CO)COC(C)=O)cccc21` registered an inhibition in assay [3] of 19%.

Consider `O=C(CCCCCCCCCCCCCCC(=O)OC[C@@]1(CO)OC(=O)c2c(OCc3ccccc3)cccc21)CC[C@@]1(CO)OC(=O)c2c(OCc3ccccc3)cccc21`, for which the inhibition in assay [4] turned out to be 54%.

Turning to `CCCCCCCCCCCCOc1cccc2c1C(=O)O[C@]2(CO)COC(C)=O`, the inhibition in assay [5] worked out at 70%.

As to `CC(=O)OC[C@@]1(CO)OC(=O)c2c(OCCCCCCCCCCCOc3cccc4c3C(=O)O[C@]4(CO)COC(C)=O)cccc21`, the inhibition in assay [4] came to 60%.

On to `CC(=O)OC[C@@]1(CO)OC(=O)c2c(OCCCCCCCCCCCCCCCCCCCCCCOc3cccc4c3C(=O)O[C@]4(CO)COC(C)=O)cccc21`, for which the inhibition in assay [6] is 25%.

Turning to `CCCCCCCCCCCC(=O)OC[C@@]1(CO)OC(=O)c2c(OCc3ccccc3)cccc21`, the inhibition in assay [1] was 90%.

In the case of `CC(=O)OC[C@@]1(CO)OC(=O)c2c(OCCCCCCCCCCCCOc3cccc4c3C(=O)O[C@]4(CO)COC(C)=O)cccc21`, the inhibition in assay [5] was determined as 70%.

Compound `CC(=O)OC[C@@]1(CO)OC(=O)c2c(OCCCCCCCCCCOc3cccc4c3C(=O)O[C@]4(CO)COC(C)=O)cccc21` came in with an inhibition in assay [4] of 45%.

For the compound `O=C(CCCCCCC(=O)OC[C@@]1(CO)OC(=O)c2c(OCc3ccccc3)cccc21)CC[C@@]1(CO)OC(=O)c2c(OCc3ccccc3)cccc21`, the inhibition in assay [3] was determined as 19%.

In turn, `O=C(CC[C@@]1(CO)OC(=O)c2c(OCc3ccccc3)cccc21)c1cccc(C(=O)OC[C@@]2(CO)OC(=O)c3c(OCc4ccccc4)cccc32)c1` came in with an inhibition in assay [3] of 4%.

`O=C(CCCCC(=O)OC[C@@]1(CO)OC(=O)c2c(OCc3ccccc3)cccc21)CC[C@@]1(CO)OC(=O)c2c(OCc3ccccc3)cccc21` gave an inhibition in assay [3] of 18%.

The compound `O=C(CCCCCCCCCCCCCCCCCCC(=O)OC[C@@]1(CO)OC(=O)c2c(OCc3ccccc3)cccc21)CC[C@@]1(CO)OC(=O)c2c(OCc3ccccc3)cccc21` showed an inhibition in assay [3] of 10%.

Turning to `O=C(CC[C@@]1(CO)OC(=O)c2c(OCc3ccccc3)cccc21)c1ccccc1C(=O)OC[C@@]1(CO)OC(=O)c2c(OCc3ccccc3)cccc21`, the inhibition in assay [3] was 4%.

`O=C(CC[C@@]1(CO)OC(=O)c2c(OCc3ccccc3)cccc21)c1ccc(C(=O)OC[C@@]2(CO)OC(=O)c3c(OCc4ccccc4)cccc32)cc1`: the inhibition in assay [3] is 2%.

In assay [4], `CC(=O)OC[C@@]1(CO)OC(=O)c2c(OCCCCCCCCCOc3cccc4c3C(=O)O[C@]4(CO)COC(C)=O)cccc21` had an inhibition of 42%.

`O=C(CCCCCCCCCCC(=O)OC[C@@]1(CO)OC(=O)c2c(OCc3ccccc3)cccc21)CC[C@@]1(CO)OC(=O)c2c(OCc3ccccc3)cccc21`: the inhibition in assay [5] worked out at 70%.

In assay [7], `O=C(CCCCCCCCCCCCCCCCC(=O)OC[C@@]1(CO)OC(=O)c2c(OCc3ccccc3)cccc21)CC[C@@]1(CO)OC(=O)c2c(OCc3ccccc3)cccc21` had an inhibition of 30%.

As to `O=C(CCCCCCCCC(=O)OC[C@@]1(CO)OC(=O)c2c(OCc3ccccc3)cccc21)CC[C@@]1(CO)OC(=O)c2c(OCc3ccccc3)cccc21`, the inhibition in assay [4] came out at 41%.

The compound `O=C(CCCCCCCCCCCCC(=O)OC[C@@]1(CO)OC(=O)c2c(OCc3ccccc3)cccc21)CC[C@@]1(CO)OC(=O)c2c(OCc3ccccc3)cccc21` displayed an inhibition in assay [5] of 70%.
